Test results reported in patent US5994366A, “Tetrahydroimidazo[2,1-A]isoquinoline derivatives” (Akzo Nobel NV, priority 1997, dated 1999).
Where a name gives a salt, the structure may show the parent alone.

Key:
Type in all cases: biochemical
Conditions in all cases: in vitro
noradrenaline reuptake = test: noradrenaline (NUP) reuptake blockade
Description: (§1) Measurement of dopamine (DUP), serotonin (SUP) and noradrenaline NUP) reuptake blockade was carried out using the methods described in Neuropharmacology Vol. 27, No. 3, pp. 251-260, 1988 and results are presented in Table 1 below.

serotonin reuptake = test: serotonin (SUP) reuptake blockade
Description: as §1

dopamine reuptake = test: dopamine (DUP) reuptake blockade
Description: as §1

For Cc1ccc(C2CN3CCN=C3c3ccccc32)cc1 (racemic) [Example 2c, (rac)-2,3,5,6-Tetrahydro-6-(4-methylphenyl)imidazo[2,1-a]isoguinoline (Z)-2-butenedioate (1:1) salt], the “NUP (pKi)” value (noradrenaline reuptake) was 7.75, the “SUP (pKi)” value (serotonin reuptake) was 6.9 and the “DUP (pKi)” value (dopamine reuptake) was 7.05.

With Fc1ccc(C2CN3CCN=C3c3ccccc32)cc1 (racemic) [Example 2b, (rac)-6-(4-Fluorophenyl)-2,3,5,6-tetrahydroimidazo[2,1-a]isoquinoline] the “NUP (pKi)” value (noradrenaline reuptake) was 7.65, the “SUP (pKi)” value (serotonin reuptake) was 7.5 and the “DUP (pKi)” value (dopamine reuptake) was 6.5.

With Fc1ccc(C2CN3CCN=C3c3ccccc32)cc1 (single isomer, unassigned; (+)) [Example 7, (+)-6-(4-Fluorophenyl)-2,3,5,6-tetrahydroimidazo[2,1-a]isoquinoline (E)-2-butenedioate (1:1) salt] the “NUP (pKi)” value (noradrenaline reuptake) was 7.75, the “SUP (pKi)” value (serotonin reuptake) was 6.25 and the “DUP (pKi)” value (dopamine reuptake) was 6.45.

For Clc1ccc(C2CN3CCN=C3c3ccccc32)cc1 (single isomer, unassigned; (-)) [Example 3, (-)-6-(4-chlorophenyl)-2,3,5,6-tetrahydroimidazo[2,1-a]isoquinoline (E)-2-butenedioate (1:1) salt], the “NUP (pKi)” value (noradrenaline reuptake) was 8.1, the “SUP (pKi)” value (serotonin reuptake) was 7.3 and the “DUP (pKi)” value (dopamine reuptake) was 7.15.

For Clc1ccc(C2CN3CCN=C3c3ccccc32)cc1 (single isomer, unassigned; (+)) [Example 4, (+)-6-(4-Chlorophenyl)-2,3,5,6-tetrahydroimidazo[2,1-a]isoquinoline (E)-2-butenedioate (1:1) salt], the “NUP (pKi)” value (noradrenaline reuptake) was 8.15, the “SUP (pKi)” value (serotonin reuptake) was 7.0 and the “DUP (pKi)” value (dopamine reuptake) was 7.2.

In the case of Fc1ccc(C2CN3CCN=C3c3ccccc32)cc1 (single isomer, unassigned; (-)) [Example 6, (-)-6-(4-fluorophenyl)-2,3,5,6-tetrahydroimidazo[2,1-a]isoquinoline (E)-2-butenedioate (1:1) salt], the “NUP (pKi)” value (noradrenaline reuptake) is reported as 7.5, the “SUP (pKi)” value (serotonin reuptake) is reported as 7.9 and the “DUP (pKi)” value (dopamine reuptake) is reported as 6.6.

Cl.Clc1ccc(C2CN3CCN=C3c3ccccc32)cc1 (racemic) [Example 2a, (rac)6-(4-chlorophenyl)-2,3,5,6-tetrahydroimidazo[2,1-a]isoquinoline hydrochloride] was tested, and the “NUP (pKi)” value (noradrenaline reuptake) was 7.9, the “SUP (pKi)” value (serotonin reuptake) was 7.4 and the “DUP (pKi)” value (dopamine reuptake) was 7.15.
